# In patent publication US20260257992A1, “AGONISTS OF SMALL HETERODIMER PARTNER FOR CANCER THERAPY” (THE BOARD OF TRUSTEES OF THE UNIVERSITY OF ILLINOIS, priority 2023, published 2026):
# Key:
# E0771 tumors = assay: Orthotopic syngeneic E0771 mammary tumor growth; assay type: in vivo, mouse
# Description: FIG. 3A-3F. DSHN, a tool small molecule agonist of NR0B2 reduces macrophage/dendritic cell induced Treg expansion and tumor growth in murine models. […] (B) Dendritic cells (left-CD11B^+; CD11C^+) and CD4^+ T cells (right) were isolated from MMTV-PyMT tumors by FACS, and treated with vehicle or DSHN for 3d. The resulting frequency of Treg (CD4^+; CD25^+; FoxP3^+) was quantified by flow cytometry (right graph), (N=3-5/group, t test). […] The percentage of divided CD8+ T cells in the second round was quantified. (D) DSHN increases efficacy of αPDL1 therapy on orthotopic E0771 tumors. An optimal number of E0771 cells were grafted into FoxP3-EGFP mice and allowed to grow until tumors reached 100 mm^3. Mice were euthanized on day 19 (waterfall plot, Fisher's exact test). (E) DSHN increases efficacy of αPDL1 therapy on orthotopic 4T1 tumors. 4T1 cells were orthotopically grafted into mice and allowed to establish for 5d prior to treatment start. Mice were euthanized on day 16 (waterfall plot, Fisher's exact test). (F) DSHN reduces metastatic outgrowth of 4T1 tumors and enhances efficacy of αPDL1 compared to placebo (p) (2-way ANOVA followed by Šidák's multiple comparison test for day 16). 4T1 cells were grafted intravenously, and lung metastatic lesions allowed to establish for 3d before treatment commenced. At the end of the study, lungs were removed and imaged ex vivo, quantified data indicated (N=10, 1-way ANOVA followed by Newman-Keuls multiple comparison test). Representative luciferase images shown to the right. * or different letters denote P<0.05 using indicated statistical test.
# FIG. 7A-7I. DSHN-OMe reduces tumor and metastatic growth in murine models, in a myeloid cell-NR0B2 dependent manner. (A) E0771 cells were grafted into control mice (NR0B2^+/+; LysMCre^+) or mice where NR0B2 was knocked out in myeloid immune cells (NR0B2^fl/fl; LysMCre^+). […] (G) EMT6 metastatic lungs were assessed for Ki67 mRNA and (H) FOXP3 mRNA. (I) EMT6 metastatic lungs were assessed for CD8+ cytotoxic T cells (CD8+). […]
# breast cancer cell lines = assay: Proliferation of breast cancer cell lines; assay type: cell-based
# Description: Protective attributes of NR0B2 are likely due to its expression in myeloid cells. […] Among human PBMCs, various subtypes of dendritic cells (DCs) and monocyte populations had elevated expression of NR0B2.
# CD8+ T cell expansion = assay: Suppressiveness of T cells expanded with treated BMDMs (secondary CD8+ expansion); assay type: cell-based, mouse; conditions: BMDMs pretreated with compound
# Description: FIG. 6A-6F. […] (A) DSHN-OMe has minimal effects on BMDM viability (N=4-6/group). (B) DSHN-OMe treated BMDMs reduce Treg expansion in a dose related manner, with an increased biological maximum compared to DSHN (data normalized to mean vehicle, which was set at 100%. Non-linear three parameter regression shown, N=4/point). […] Different letters denote P<0.05. […] The percentage of divided CD8+ T cells in the second round was quantified. (N=3-5/group, different letters indicating statistical significance, 1-way ANOVA followed by Tukey). […] Vehicle (DMSO) treated BMDMs are indicated on the right for comparison. (F) Cellular uptake of DSHN-OMe greatly exceeds that of DSHN though time. RAW264.7 cells were treated with 50 µM of vehicle (DMSO) or indicated compound for 4 h, 8 h or 24 h. Compound was washed off, cells were lysed and resulting DSHN and DSHN-OMe contents were assessed by LC-MS/MS. Note different scales on y-axes. For DSHN treated cells, no DSHN-OMe was detected (not shown). For DSHN-OMe treated cells, some DSHN was detected. ND signifies when compounds were not detected. (N=3/group. 4 h timepoint was run in an experiment independent of the 8 and 24 hr timepoints).
# In order to better assess the potential cellular toxicity of DSHN-OMe, we treated BMDMs with increasing doses and measured their ability to reduce resazurin to resorufin (similar to the MTT viability assay).
# Treg abundance = assay: In vivo model of immune tolerance to a chronic antigen
SMILES,"Growth of established E0771 tumors, combined with αPDL1 (E0771 tumors; DSHN combined with αPDL1)",Proliferation of breast cancer cell lines (breast cancer cell lines),Suppressiveness of expanded T cells towards second set of naïve T cells (CD8+ expansion) (CD8+ T cell expansion),Treg abundance in vivo (Treg abundance),"E0771 tumor growth, myeloid NR0B2 knockout (E0771 tumors; NR0B2fl/fl, LysMCre+ mice)","E0771 tumor growth (E0771 tumors; control NR0B2+/+, LysMCre+ mice, daily treatment from day 8)"
"CCN(CC)S(=O)(=O)c1cccc2cc(C(=O)O)c(O)cc12 [DSHN, reference compound]",decreased growth,no effect on proliferation,less suppressive,reduce Treg abundance,,
"CCN(CC)S(=O)(=O)c1cccc2cc(C(=O)OC)c(O)cc12 [DSHN-OMe, Methyl 5-(N,N-diethylsulfamoyl)-3-hydroxy-2-naphthoate]",,,less suppressive,,no significant impact,significantly reduced E0771 tumor growth
